Results on 4 compounds are retold here after patent publication US20090306126A1, “Indole Derivatives” (ASTRAZENECA AB, priority 2006, published 2009).

Each structure is given as a SMILES string.

Broadly, the IC50 is the point on the concentration scale where inhibition reaches its midpoint.

Assay [1] addresses T1, p110α Type Ia human PI3K (Homo sapiens, UniProt P42336).
T1 construct: full length DNA of each of the p110α, p110β and p110δ Type Ia human PI3K p110 isoforms; 6-His; made in house
Description: In vitro PI3K enzyme assay (AlphaScreen), Test (a). In kind it is biochemical. The conditions noted are these: recombinant enzyme, ATP 4 μM, read-out: IC50 versus p110α Type Ia human PI3K. An excerpt:
(a) In Vitro PI3K Enzyme Assay
The assay used AlphaScreen technology (Gray et al., Analytical Biochemistry, 2003, 313: 234-245) to determine the ability of test compounds to inhibit phosphorylation by recombinant Type I PI3K enzymes of the lipid PI(4,5)P2.
DNA fragments encoding human PI3K catalytic and regulatory subunits were isolated from cDNA libraries using standard molecular biology and PCR cloning techniques. The selected DNA fragments were used to generate baculovirus expression vectors. In particular, full length DNA of each of the p110α, p110β and p110δ Type Ia human PI3K p110 isoforms (EMBL Accession Nos. HSU79143, S67334, Y10055 for p110α, p110β and p110δ respectively) were sub-cloned into a pDEST10 vector (Invitrogen Limited, Fountain Drive, Paisley, UK). The vector is a Gateway-adapted version of Fastbac1 containing a 6-His epitope tag. A truncated form of Type Ib human PI3K p110γ isoform corresponding to amino acid residues 144-1102 (EMBL Accession No. X8336A) and the full length human p85α regulatory subunit (EMBL Accession No. HSP13KIN) were also sub-cloned into pFastBac1 vector containing a 6-His epitope tag. The Type Ia p110 constructs were co-expressed with the p85α regulatory subunit. Following expression in the baculovirus system using standard baculovirus expression techniques, expressed proteins were purified using the His epitope tag using standard purification techniques.
DNA corresponding to amino acids 263 to 380 of human general receptor for phosphoinositides (Grp1) PH domain was isolated from a cDNA library using standard molecular biology and PCR cloning techniques. The resultant DNA fragment was sub-cloned into a pGEX 4T1 E. coli expression vector containing a GST epitope tag (Amersham Pharmacia Biotech, Rainham, Essex, UK) as described by Gray et al., Analytical Biochemistry, 2003, 313: 234-245). The GST-tagged Grp1 PH domain was expressed and purified using standard techniques.
Test compounds were prepared as 10 mM stock solutions in DMSO and diluted into water as required to give a range of final assay concentrations. Aliquots (2 μl) of each compound dilution were placed into a well of a Greiner 384-well low volume (LV) white polystyrene plate (Greiner Bio-one, Brunel Way, Stonehouse, Gloucestershire, UK Catalogue No. 784075). […]
Biotinylated-DiC8-PI(3,4,5)P3 (50 nM; Cell Signals Inc., Catalogue No. 107), recombinant purified GST-Grp1 PH protein (2.5 nM) and AlphaScreen Anti-GST donor and acceptor beads (100 ng; Packard Bioscience Limited, Station Road, Pangbourne, Berkshire, UK, Catalogue No. 6760603M) were added and the assay plates were left for about 5 to 20 hours at room temperature in the dark. The resultant signals arising from laser light excitation at 680 nm were read using a Packard AlphaQuest instrument. […]

In assay [2] the test system is phosphorylation of Serine 473 in Akt. Description: In vitro phospho-Ser473 Akt assay in MDA-MB-468 cells, Test (c). In kind it is cell-based. The conditions noted are these: Homo sapiens, 2 hours, read-out: IC50, inhibition of phosphorylation of Serine 473 in Akt. How it is done: (c) In Vitro Phospho-Ser473 Akt Assay
This assay determines the ability of test compounds to inhibit phosphorylation of Serine 473 in Akt as assessed using Acumen Explorer technology (TTP LabTech Limited, Royston, Herts, SG8 6EE, UK), a plate reader that can be used to rapidly quantitate features of images generated by laser-scanning.
A MDA-MB-468 human breast adenocarcinoma cell line (LGC Promochem, Teddington, Middlesex, UK, Catalogue No. HTB-132) was routinely maintained at 37° C. with 5% CO2 up to a confluency of 70-90% in DMEM containing 10% FCS and 1% L-glutamine.
For the assay, the cells were detached from the culture flask using ‘Accutase’ (Innovative Cell Technologies Inc., San Diego, Calif., USA; Catalogue No. AT104) using standard tissue culture methods and resuspended in media to give 5.5×10^4 cells per ml. Aliquots (90 μl) were seeded into each of the inner 60 wells of a black ‘Costar’ 96-well plate (Corning Inc., NY, USA; Catalogue No. 3904) to give a density of ˜5000 cells per well. Aliquots (90 μl) of culture media were placed in the outer wells to prevent edge effects. [An alternative cell handling procedure involved the maintenance of the cells in a ‘SelecT’ robotic device (The Automation Partnership, Royston, Herts SG8 5WY, UK). Cells were resuspended in media to give 5×10^4 cells per ml. Aliquots (100 μl) were seeded into the wells of a black ‘Costar’ 96-well plate.] The cells were incubated overnight at 37° C. with 5% CO2 to allow them to adhere.
On day 2, the cells were treated with test compounds. Test compounds were prepared as 10 mM stock solutions in DMSO and serially diluted as required with DMSO and with growth media to give a range of concentrations that were 10-fold the required final test concentrations. Aliquots (10 μl) of each compound dilution were placed in duplicate wells to give the final required concentrations. As a minimum response control, each plate contained wells having a final concentration of 30 μM LY294002 (Calbiochem, Beeston, UK, Catalogue No. 440202). As a maximum response control, wells contained 0.5% DMSO instead of test compound. [An alternative cell treatment procedure involved the transfer of test compounds to the wells using an ‘Echo 550’ liquid dispenser (Labcyte Inc., Sunnyvale, Calif. 94089, USA). Test compounds were prepared as 10 mM stock solutions in DMSO and aliquots (40 μl) of each compound were dispensed into one well of a quadrant of wells within a 384-well plate (Labcyte Inc., Catalogue No. P-05525-CV1). Four concentrations of each compound were prepared in each quadrant of wells in the 384-well plate using a ‘Hydra II’ pipettor (Matrix Technologies Corporation, Handforth SK9 3LP, UK). […]

The target in assay [3] is mTOR PI kinase-related kinase (Homo sapiens, UniProt P42345). Description: In vitro mTOR PI kinase-related kinase assay (AlphaScreen), Test (b). It is filed as biochemical. The conditions noted are these: recombinant mTOR (1362-2549), ATP 20 μM, read-out: IC50 versus mTOR PI kinase-related kinase. The method, then:
(b) In Vitro mTOR PI Kinase-Related Kinase Assay
The assay used AlphaScreen technology (Gray et al, Analytical Biochemistry, 2003, 313: 234-245) to determine the ability of test compounds to inhibit phosphorylation by recombinant mTOR. […]
Each reaction was stopped by the addition of 10 μl of a mixture of EDTA (50 mM), bovine serum albumin (BSA; 0.5 mg/ml) and Tris-HCl pH7.4 buffer (50 mM) containing p70 S6 Kinase (T389) 1A5 Monoclonal Antibody (Cell Signalling Technology, Catalogue No. 9206B) and AlphaScreen Streptavidin donor and Protein A acceptor beads (200 ng; Perkin Elmer, Catalogue No. 6760002B and 6760137R respectively) were added and the assay plates were left for about 20 hours at room temperature in the dark. The resultant signals arising from laser light excitation at 680 nm were read using a Packard Envision instrument.
Phosphorylated biotinylated peptide is formed in situ as a result of mTOR mediated phosphorylation. […] Upon laser light excitation at 680 nm, the donor bead:acceptor bead complex produces a signal that can be measured. […]
mTOR enzyme inhibition for a given test compound was expressed as an IC50 value.
For orientation: In Alpha technology, singlet oxygen from a donor bead excites a nearby acceptor bead.

T1 sequence (P42336 whole entry, canonical isoform): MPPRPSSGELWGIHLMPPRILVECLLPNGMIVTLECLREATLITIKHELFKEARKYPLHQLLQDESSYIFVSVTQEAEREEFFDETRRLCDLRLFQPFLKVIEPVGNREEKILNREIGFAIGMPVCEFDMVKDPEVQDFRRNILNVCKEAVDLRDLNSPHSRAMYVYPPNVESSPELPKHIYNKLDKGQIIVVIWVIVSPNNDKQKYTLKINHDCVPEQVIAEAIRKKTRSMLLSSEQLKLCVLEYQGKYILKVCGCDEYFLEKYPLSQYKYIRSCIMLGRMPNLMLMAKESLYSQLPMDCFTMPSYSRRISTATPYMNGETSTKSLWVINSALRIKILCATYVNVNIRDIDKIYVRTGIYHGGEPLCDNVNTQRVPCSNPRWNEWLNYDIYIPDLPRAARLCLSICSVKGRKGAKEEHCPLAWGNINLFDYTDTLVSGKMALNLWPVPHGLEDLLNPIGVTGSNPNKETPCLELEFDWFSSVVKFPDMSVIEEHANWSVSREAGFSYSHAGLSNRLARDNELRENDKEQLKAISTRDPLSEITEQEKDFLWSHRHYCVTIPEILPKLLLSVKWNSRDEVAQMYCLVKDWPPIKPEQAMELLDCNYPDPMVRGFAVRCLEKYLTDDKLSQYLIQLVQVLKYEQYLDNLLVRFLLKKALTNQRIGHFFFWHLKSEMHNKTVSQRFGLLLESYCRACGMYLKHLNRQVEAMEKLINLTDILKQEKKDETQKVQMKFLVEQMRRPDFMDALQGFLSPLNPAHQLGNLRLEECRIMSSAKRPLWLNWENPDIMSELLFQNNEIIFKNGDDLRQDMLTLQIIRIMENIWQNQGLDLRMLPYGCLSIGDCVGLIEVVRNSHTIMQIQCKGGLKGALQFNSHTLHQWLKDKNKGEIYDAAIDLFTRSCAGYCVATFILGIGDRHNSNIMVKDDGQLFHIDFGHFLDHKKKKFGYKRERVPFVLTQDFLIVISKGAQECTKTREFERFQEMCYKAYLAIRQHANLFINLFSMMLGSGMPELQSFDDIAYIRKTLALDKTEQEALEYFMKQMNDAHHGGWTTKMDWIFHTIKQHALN
T1 sequence (P27986 whole entry partner, canonical isoform): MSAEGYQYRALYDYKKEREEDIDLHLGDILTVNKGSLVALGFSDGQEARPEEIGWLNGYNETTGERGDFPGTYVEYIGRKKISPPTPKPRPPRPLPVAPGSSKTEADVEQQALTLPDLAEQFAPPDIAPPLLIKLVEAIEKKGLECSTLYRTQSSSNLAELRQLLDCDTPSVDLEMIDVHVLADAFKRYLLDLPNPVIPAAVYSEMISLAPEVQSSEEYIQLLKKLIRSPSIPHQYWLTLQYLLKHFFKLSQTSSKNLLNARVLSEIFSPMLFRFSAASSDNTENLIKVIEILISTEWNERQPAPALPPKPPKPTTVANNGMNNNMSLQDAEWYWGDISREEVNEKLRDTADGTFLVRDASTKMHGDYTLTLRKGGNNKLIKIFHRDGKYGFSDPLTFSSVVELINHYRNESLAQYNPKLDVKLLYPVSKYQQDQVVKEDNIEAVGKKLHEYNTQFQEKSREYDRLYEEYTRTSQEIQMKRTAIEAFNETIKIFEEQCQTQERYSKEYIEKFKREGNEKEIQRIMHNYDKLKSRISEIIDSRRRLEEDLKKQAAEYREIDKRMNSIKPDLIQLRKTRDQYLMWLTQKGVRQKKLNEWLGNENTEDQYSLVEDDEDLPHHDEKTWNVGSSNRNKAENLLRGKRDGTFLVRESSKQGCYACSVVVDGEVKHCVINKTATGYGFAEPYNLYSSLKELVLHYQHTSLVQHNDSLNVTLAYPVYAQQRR
Sequence of mTOR PI kinase-related kinase (P42345 1362-2549): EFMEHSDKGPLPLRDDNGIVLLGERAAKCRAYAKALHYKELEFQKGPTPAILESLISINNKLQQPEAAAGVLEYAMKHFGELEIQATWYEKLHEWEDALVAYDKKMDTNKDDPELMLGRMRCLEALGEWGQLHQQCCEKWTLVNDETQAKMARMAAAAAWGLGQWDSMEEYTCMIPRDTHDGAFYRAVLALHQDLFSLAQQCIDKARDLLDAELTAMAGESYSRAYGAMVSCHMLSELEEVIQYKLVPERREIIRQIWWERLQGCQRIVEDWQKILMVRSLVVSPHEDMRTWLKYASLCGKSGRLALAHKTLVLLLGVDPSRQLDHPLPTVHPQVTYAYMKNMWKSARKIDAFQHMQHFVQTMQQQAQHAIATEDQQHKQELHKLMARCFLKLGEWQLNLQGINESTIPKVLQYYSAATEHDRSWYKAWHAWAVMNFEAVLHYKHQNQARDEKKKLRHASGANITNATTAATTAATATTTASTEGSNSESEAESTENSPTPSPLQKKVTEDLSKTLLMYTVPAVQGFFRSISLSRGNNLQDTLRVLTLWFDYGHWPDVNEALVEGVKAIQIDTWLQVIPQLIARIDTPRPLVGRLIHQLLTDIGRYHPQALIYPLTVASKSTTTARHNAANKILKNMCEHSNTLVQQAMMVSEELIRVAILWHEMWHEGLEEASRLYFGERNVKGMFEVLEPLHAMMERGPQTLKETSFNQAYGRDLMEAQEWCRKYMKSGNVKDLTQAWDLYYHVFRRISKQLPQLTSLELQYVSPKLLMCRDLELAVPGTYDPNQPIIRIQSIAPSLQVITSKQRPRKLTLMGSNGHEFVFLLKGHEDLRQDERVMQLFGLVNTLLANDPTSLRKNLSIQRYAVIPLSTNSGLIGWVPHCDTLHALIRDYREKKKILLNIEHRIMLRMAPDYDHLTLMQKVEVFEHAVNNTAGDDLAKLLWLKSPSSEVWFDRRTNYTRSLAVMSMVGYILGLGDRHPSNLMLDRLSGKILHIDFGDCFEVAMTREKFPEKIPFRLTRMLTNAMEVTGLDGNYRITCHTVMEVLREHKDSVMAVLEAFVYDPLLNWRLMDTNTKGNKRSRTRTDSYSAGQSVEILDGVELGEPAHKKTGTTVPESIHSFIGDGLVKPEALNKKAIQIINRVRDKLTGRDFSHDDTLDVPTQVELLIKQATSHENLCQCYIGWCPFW

Consider `O=S(=O)(Nc1cc(-c2cnc3[nH]ccc3c2)cnc1Cl)c1ccccc1` [Example 3, N-[2-chloro-5-(1H-pyrrolo[2,3-b]pyridin-5-yl)pyridin-3-yl]benzenesulphonamide], for which the values for the IC50 in assay [1] and in assay [2] were around 200 nM and around 5000 nM, respectively.

For `CS(=O)(=O)Nc1cc(-c2cnc3[nH]ccc3c2)cnc1Cl` [Example 1, N-[2-chloro-5-(1H-pyrrolo[2,3-b]pyridin-5-yl)pyridin-3-yl]methanesulphonamide], the concentration for half-maximal inhibition (IC50) is around 500 nM in assay [1], around 1000 nM in assay [3] and around 13000 nM in assay [2].

With `Cc1nc2[nH]cnc2cc1-c1cnc(Cl)c(NS(=O)(=O)c2ccccc2)c1` [Example 7, N-[2-chloro-5-(5-methyl-3H-imidazo[4,5-b]pyridin-6-yl)pyridin-3-yl]benzenesulphonamide], the values for the IC50 in assay [1] and in assay [2] were around 500 nM and around 2000 nM, respectively.

Regarding `Cc1nc2[nH]ccc2cc1-c1cnc(Cl)c(NS(=O)(=O)c2ccccc2)c1` [Example 8, N-[2-chloro-5-(6-methyl-1H-pyrrolo[2,3-b]pyridin-5-yl)pyridin-3-yl]benzenesulphonamide], the IC50 in assay [1] was around 100 nM; in assay [2], around 3000 nM.
